This passage reports IC50 results from patent US8933103B2, “Pyridone derivatives” (Daiichi Sankyo Company, Limited, priority 2012, dated 2015).

pIC50: −log10 of the molar value.

Assay [1] addresses T1, phosphorylated Axl (pAxl Y702) in NCI-H1299 cells (Homo sapiens, UniProt P30530).
T1 construct: endogenous in cells; host or cells: NCI-H1299
T1 sequence (P30530 26-894): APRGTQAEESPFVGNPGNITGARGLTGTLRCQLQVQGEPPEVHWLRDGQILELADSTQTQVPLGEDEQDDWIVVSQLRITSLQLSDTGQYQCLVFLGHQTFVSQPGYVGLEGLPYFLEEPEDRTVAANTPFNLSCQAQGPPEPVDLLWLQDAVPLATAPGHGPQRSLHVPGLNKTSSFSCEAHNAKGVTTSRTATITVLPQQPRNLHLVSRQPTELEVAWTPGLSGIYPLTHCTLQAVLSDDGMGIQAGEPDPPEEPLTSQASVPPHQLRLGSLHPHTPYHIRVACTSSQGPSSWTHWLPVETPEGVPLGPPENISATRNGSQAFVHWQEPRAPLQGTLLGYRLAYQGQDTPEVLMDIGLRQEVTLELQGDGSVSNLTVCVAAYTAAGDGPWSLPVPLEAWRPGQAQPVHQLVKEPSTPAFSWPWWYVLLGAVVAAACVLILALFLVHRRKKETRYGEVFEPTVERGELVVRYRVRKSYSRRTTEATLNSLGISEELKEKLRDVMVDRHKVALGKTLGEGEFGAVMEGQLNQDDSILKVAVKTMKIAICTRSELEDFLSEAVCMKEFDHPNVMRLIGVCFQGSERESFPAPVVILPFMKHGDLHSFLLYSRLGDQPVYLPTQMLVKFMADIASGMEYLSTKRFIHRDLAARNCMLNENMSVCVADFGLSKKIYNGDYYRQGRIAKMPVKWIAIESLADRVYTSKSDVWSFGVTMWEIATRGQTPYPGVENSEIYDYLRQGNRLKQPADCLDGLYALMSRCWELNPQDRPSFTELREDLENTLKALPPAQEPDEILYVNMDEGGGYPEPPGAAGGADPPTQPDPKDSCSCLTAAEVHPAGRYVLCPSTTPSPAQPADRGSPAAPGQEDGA
Put plainly: Intracellular Axl Phosphorylation Inhibitory Activity (pAxl, NCI-H1299 cells). Type of assay: cell-based. The following applies: 1 h compound incubation, GAS6 stimulation 10 minutes, pAxl (Y702) level. Here is the method: A phosphorylated Axl (hereinafter pAxl) inhibitory test was performed using the human non-small-cell lung cancer-derived cell strain NCI-H1299.
On the following day, the medium was removed, 100 μl of fresh medium were added, and the cells were cultured at 37° C. in the presence of 5% CO2 for one day.
The test compound was dissolved in DMSO and diluted with medium to prepare a sample solution (DMSO concentration: 2%). Twenty-five microliters of medium or sample-added medium was added to each well (DMSO concentration: 0.4%), and the plate was incubated at 37° C. in the presence of 5% CO2 for one hour.
After stirring, the plate was incubated at 37° C. in the presence of 5% CO2 for 10 minutes.
The supernatant was discarded, and 0.1 ml of a 37% formalin solution diluted to 4% with phosphate buffer (PBS) (hereinafter “4% formalin solution”) was added to each well. The plate was allowed to stand at room temperature for 10 minutes.
Next, the 4% formalin solution was discarded, and 0.2 ml of a solution of Triton X-100 diluted to 0.1% with PBS (hereinafter “wash buffer”) was added. The wash buffer was discarded using a decanter, and excess moisture in the plate was removed on a paper towel.
Subsequently, […] NaN3 and H2O2 were added to the wash buffer at 0.1% (hereinafter “quenching buffer”), and 0.1 ml of the quenching buffer was added to each well. The plate was allowed to stand at room temperature for 15 minutes.
The quenching buffer was discarded, and 0.2 ml of wash buffer was added. The wash buffer was discarded using a decanter, and excess moisture in the plate was removed on a paper towel.
Skim milk (Nacalai Tesque) was added to the wash buffer at a final concentration of 5% (hereinafter “blocking buffer”), and 0.25 ml of the blocking buffer was added to each well. The plate was allowed to stand at room temperature for one hour.
After light stirring, the plate was incubated for 20 minutes. Luminescence was then measured by ARVO sx (PerkinElmer), and the pAxl (Y702) level was measured.
pAxl Inhibitory activity was determined by the following formula. Inhibition %=100−(A−B)×100/(T−B)
A: Measurement of the test compound
T: Luminescence value of the reaction solution with a compound not added

Assay [2] has as its target T2, AXL (fusion protein of amino acids 464-885 of the intracellular domain of human AXL with glutathione transferase) (Homo sapiens, UniProt P30530).
T2 sequence (P30530 464-885 isoform P30530-2): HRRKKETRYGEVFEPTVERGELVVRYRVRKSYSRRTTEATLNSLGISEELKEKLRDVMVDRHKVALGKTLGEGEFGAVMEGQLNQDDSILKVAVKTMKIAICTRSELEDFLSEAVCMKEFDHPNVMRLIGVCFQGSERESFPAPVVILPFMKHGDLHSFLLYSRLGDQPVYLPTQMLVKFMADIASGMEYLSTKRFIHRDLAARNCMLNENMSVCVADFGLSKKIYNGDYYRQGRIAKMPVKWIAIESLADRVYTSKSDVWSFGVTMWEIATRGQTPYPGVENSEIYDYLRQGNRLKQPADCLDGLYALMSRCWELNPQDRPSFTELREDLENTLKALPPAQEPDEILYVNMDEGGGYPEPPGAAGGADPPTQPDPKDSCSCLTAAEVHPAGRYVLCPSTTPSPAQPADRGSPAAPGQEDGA
The assay is described as follows: Cell-Free Axl Kinase Inhibitory Activity.
Procedure: Next, the test compound was diluted with DMSO, and 1 μl of this diluted solution was added to each well.
Five microliters of this solution were added to each well to initiate a kinase reaction. The plate was incubated at 28° C. for 1.5 hours, and 40 μl of a termination buffer (100 mM HEPES (pH 7.4), 0.015% Brij-35, 40 mM EDTA, 0.1% Coating Reagent 3) was added to each well to terminate the reaction.
The substrate peptide and the phosphorylated peptide in the reaction solution were separated and quantified by EZ Reader II (Caliper Life Sciences).
IC50 was determined from inhibition data for 12 test compound concentrations by nonlinear regression (four-parameter logistic regression) using the following formula.

A word on the pIC50: it is −log10 of the IC50, conventionally taken in molar units. As to `CC(C)(O)Cn1cc(C(=O)Nc2ccc(-c3cc(-c4cnn(C[C@H]5COCCO5)c4)cnc3N)cc2)c(=O)c(-c2ccc(F)cc2)c1` [Example 68, N-[4-(2-Amino-5-{1-[(2S)-1,4-dioxan-2-ylmethyl]-1H-pyrazol-4-yl}pyridin-3-yl)phenyl]-5-(4-fluorophenyl)-1-(2-hydroxy-2-methylpropyl)-4-oxo-1,4-dihydropyridine-3-carboxamide], the negative-log IC50 (pIC50) in assay [1] was 6.30 to 7.00; in assay [2], 7.70 to 8.00. For `COc1ccnc(N)c1-c1ccc(NC(=O)c2cn(Cc3ccc(F)cc3)cc(C(=O)N3CCCC3)c2=O)cc1` [Example 84, N-[4-(2-Amino-4-methoxypyridin-3-yl)phenyl]-1-(4-fluorobenzyl)-4-oxo-5-(pyrrolidin-1-ylcarbonyl)-1,4-dihydropyridine-3-carboxamide], the pIC50 in assay [1] is 6.30 to 7.00; in assay [2], 7.70 to 8.00. Consider `CCN(CC)CCn1cc(C(=O)Nc2ccc(-c3cc(-c4cnn(C[C@H]5COCCO5)c4)cnc3N)cc2)c(=O)c(-c2ccc(F)cc2)c1` [Example 69, N-[4-(2-Amino-5-{1-[(2S)-1,4-dioxan-2-ylmethyl]-1H-pyrazol-4-yl}pyridin-3-yl)phenyl]-1-[2-(diethylamino)ethyl]-5-(4-fluorophenyl)-4-oxo-1,4-dihydropyridine-3-carboxamide], for which the pIC50 in assay [1] is 6.30 to 7.00; in assay [2], 8.00 to 9.00. As to `COc1ccc(-c2cnc(N)c(-c3ccc(NC(=O)c4cn(CC(F)(F)F)cc(-c5ccc(F)cc5)c4=O)cc3)c2)cc1` [Example 32, N-{4-[2-Amino-5-(4-methoxyphenyl)pyridin-3-yl]phenyl}-5-(4-fluorophenyl)-4-oxo-1-(2,2,2-trifluoroethyl)-1,4-dihydropyridine-3-carboxamide], the results for the pIC50 in assay [1] and in assay [2] were 6.30 to 7.00 and 7.70 to 8.00, respectively. With `CCn1cc(C(=O)Nc2ccc(-c3cc(-c4ccc(OC)c(OC)c4)cnc3N)cc2)c(=O)c(-c2ccccc2)c1` [Example 18, N-{4-[2-Amino-5-(3,4-dimethoxyphenyl)pyridin-3-yl]phenyl}-1-ethyl-4-oxo-5-phenyl-1,4-dihydropyridine-3-carboxamide], the figures for the pIC50 in assay [1] and in assay [2] were 7.00 to 7.30 and 8.00 to 9.00, respectively. As to `COCCOc1ccc(-c2cnc(N)c(-c3ccc(NC(=O)c4cn(CC(F)(F)F)cc(-c5ccc(F)cc5)c4=O)cc3)c2)cc1OC` [Example 38, N-(4-{2-Amino-5-[3-methoxy-4-(2-methoxyethoxy)phenyl]pyridin-3-yl}phenyl)-5-(4-fluorophenyl)-4-oxo-1-(2,2,2-trifluoroethyl)-1,4-dihydropyridine-3-carboxamide], the negative-log IC50 (pIC50) in assay [2] is 9.00 to 10.00. Same read-out and setting: the result for `CNC(=O)Cn1cc(C(=O)Nc2ccc(-c3cc(-c4ccc(OC)c(OC)c4)cnc3N)cc2)c(=O)c(-c2ccc(F)cc2)c1` [Example 15, N-{4-[2-Amino-5-(3,4-dimethoxyphenyl)pyridin-3-yl]phenyl}-5-(4-fluorophenyl)-1-[2-(methylamino)-2-oxoethyl]-4-oxo-1,4-dihydropyridine-3-carboxamide] reads 9.00 to 10.00. As for `Cc1cn(Cc2ccc(F)cc2)cc(C(=O)Nc2ccc(-c3cc(-c4cnn(C)c4)cnc3N)cc2)c1=O` [Example 58, N-{4-[2-Amino-5-(1-methyl-1H-pyrazol-4-yl)pyridin-3-yl]phenyl}-1-(4-fluorobenzyl)-5-methyl-4-oxo-1,4-dihydropyridine-3-carboxamide], in assay [2], the negative-log IC50 (pIC50) is 8.00 to 9.00. The same measure, in the same setting: as for `COc1ccc(-c2cnc(N)c(-c3ccc(NC(=O)c4cn(CC(F)(F)OC)cc(-c5ccc(F)cc5)c4=O)cc3)c2)cc1OC` [Example 17, N-{4-[2-Amino-5-(3,4-dimethoxyphenyl)pyridin-3-yl]phenyl}-1-(2,2-difluoro-2-methoxyethyl)-5-(4-fluorophenyl)-4-oxo-1,4-dihydropyridine-3-carboxamide], the figure is 9.00 to 10.00; as for `COc1cc(-c2cnc(N)c(-c3ccc(NC(=O)c4cn(Cc5ccccc5)cc(-c5ccc(F)cc5)c4=O)cc3)c2)ccc1OC[C@H]1COCCO1` [Example 41, N-[4-(2-Amino-5-{4-[(2R)-1,4-dioxan-2-ylmethoxy]-3-methoxyphenyl}pyridin-3-yl)phenyl]-1-benzyl-5-(4-fluorophenyl)-4-oxo-1,4-dihydropyridine-3-carboxamide], 8.00 to 9.00; as for `COc1cc(-c2cnc(N)c(-c3ccc(NC(=O)c4cn(CCF)cc(-c5ccccc5)c4=O)cc3)c2)ccc1OC[C@H]1COCCO1` [Example 44, N-[4-(2-Amino-5-{4-[(2R)-1,4-dioxan-2-ylmethoxy]-3-methoxyphenyl}pyridin-3-yl)phenyl]-1-(2-fluoroethyl)-4-oxo-5-phenyl-1,4-dihydropyridine-3-carboxamide], 8.00 to 9.00. Take `COc1ccnc(N)c1-c1ccc(NC(=O)c2cn(CCF)cc(-c3ccc(F)cc3)c2=O)cc1` [Example 83, N-[4-(2-Amino-4-methoxypyridin-3-yl)phenyl]-1-(2-fluoroethyl)-5-(4-fluorophenyl)-4-oxo-1,4-dihydropyridine-3-carboxamide]: the negative-log IC50 (pIC50) in assay [2] was 7.70 to 8.00.

The compound `Cn1cc(-c2cnc(N)c(-c3ccc(NC(=O)c4cn(CC(F)(F)F)cc(-c5ccccc5)c4=O)cc3)c2)cn1` [Example 54, N-{4-[2-Amino-5-(1-methyl-1H-pyrazol-4-yl)pyridin-3-yl]phenyl}-4-oxo-5-phenyl-1-(2,2,2-trifluoroethyl)-1,4-dihydropyridine-3-carboxamide] had a pIC50 in assay [2] of 8.00 to 9.00. The compound `COc1cc(-c2cnc(N)c(-c3ccc(NC(=O)c4cn(CCF)cc(-c5ccccc5)c4=O)cc3)c2)ccc1OCCN1CCCC1` [Example 40, N-(4-{2-Amino-5-[3-methoxy-4-(2-pyrrolidin-1-ylethoxy)phenyl]pyridin-3-yl}phenyl)-1-(2-fluoroethyl)-4-oxo-5-phenyl-1,4-dihydropyridine-3-carboxamide] had a negative logarithm of the IC50 (pIC50) in assay [2] of 9.00 to 10.00. As for `Cc1cc(-c2cnc(N)c(-c3ccc(NC(=O)c4cn(CCF)cc(-c5ccc(F)cc5)c4=O)cc3)c2)ccn1` [Example 78, N-[4-(6-Amino-2′-methyl-3,4′-bipyridin-5-yl)phenyl]-1-(2-fluoroethyl)-5-(4-fluorophenyl)-4-oxo-1,4-dihydropyridine-3-carboxamide], in assay [2], the pIC50 is 8.00 to 9.00. Same read-out and setting: as for `COc1ccc(-c2cnc(N)c(-c3ccc(NC(=O)c4cn(CC(F)(F)F)cc(-c5ccccc5)c4=O)cc3)c2)cc1OC` [Example 20, N-{4-[2-Amino-5-(3,4-dimethoxyphenyl)pyridin-3-yl]phenyl}-4-oxo-5-phenyl-1-(2,2,2-trifluoroethyl)-1,4-dihydropyridine-3-carboxamide], the figure is 8.00 to 9.00.
